Data from ChEMBL document CHEMBL5661943, “ASAP - In vitro antiviral effect” (2024).
“And” between values parts separate entries of the source, which are not always exact repeats. Equal values may be shown once.

What was measured:
dengue virus type 2 [1] = test: (§1) Functional immunofluorescence assay to measure dose dependent changes in antiviral-drug inhibitory efficacy against Dengue virus type 2 Thailand/16681/84 in Vero E6/TMPRSS2 cells (cotreated with P-gp inhibitor, Elacridar). Cells are treated with antiviral candidates that are serially diluted, following infection, cells are fixed. EC50 is reported via analysis of immunofluorescence staining. The assay has been performed by Icahn School of Medicine at Mount Sinai.; format: organism-based, Chlorocebus sabaeus, VeroE6/TMPRSS2; conditions: Dengue virus
dengue virus type 2 [2] = test: Functional assay to measure dose dependent changes in antiviral-drug inhibitory efficacy against Dengue virus type 2 New Guinea C in Vero E6 miRFP670 cells (cotreated with P-gp inhibitor, CP100356). Cells are treated with antiviral candidates that are serially diluted, following infection, cells are fixed. EC50 is reported via analysis of fluorescence intensity using high-content imager. The …; format: organism-based, Chlorocebus sabaeus, Vero C1008; conditions: Dengue virus, Vero C1008
Zika virus [3] = test: EC50 is reported via analysis of immunofluorescence staining. The assay has been performed by Icahn School of Medicine at Mount Sinai.; format: functional, organism-based, Chlorocebus sabaeus, VeroE6/TMPRSS2; conditions: for EC90: P-gp concentration 2 uM, P-gp inhibitor Elacidar
dengue virus type 2 [4] = test: as §1, with “cells.” for “cells (cotreated with P-gp inhibitor, Elacridar).”; format: organism-based, Chlorocebus sabaeus; conditions: for EC50: VeroE6/TMPRSS2
Zika virus [5] = test: as §1, with “Zika” for “Dengue”, “PRVABC59” for “type 2 Thailand/16681/84”, “cells.” for “cells (cotreated with P-gp inhibitor, Elacridar).”; format: organism-based, Chlorocebus sabaeus; conditions: for EC50: VeroE6/TMPRSS2

CCc1cc(C(=O)Nc2cccc(CN)c2)sc1-c1ccc(Cl)cc1
EC50 (dengue virus type 2 [1]; VeroE6/TMPRSS2): 1.48 µM | EC90 (dengue virus type 2 [1]; VeroE6/TMPRSS2, Baseline response 0 %, Hill slope -0.734, Maximum measured 115.481 %, Maximum response 100 %, Minimum measured 26.383 %, P-gp concentration 2 uM, R squared 0.805, P-gp inhibitor Elacidar): > 5.56 µM | EC50 (dengue virus type 2 [2]): 7.88 µM | EC90 (dengue virus type 2 [2]; Baseline response 0 %, EC90 CI (lower) 5.869 uM, EC90 CI (upper) 6.978 uM, Hill slope -10.543, Maximum measured 99.815 %, Maximum response 100 %, Minimum measured 0.348 %, P-gp concentration 500 nM, R squared 0.992, P-gp inhibitor CP100356): 9.71 µM | EC50 (Zika virus [3]; Zika virus, VeroE6/TMPRSS2): > 50 µM | EC90 (Zika virus [3]; Zika virus, VeroE6/TMPRSS2, Baseline response 0 %, Hill slope -0.283, Maximum measured 157.581 %, Maximum response 100 %, Minimum measured 60.948 %, R squared 0.14): > 50 µM | EC50 (dengue virus type 2 [4]): 0.04 µM | EC90 (dengue virus type 2 [4]; VeroE6/TMPRSS2, Baseline response 0 %, EC90 CI (lower) 0 uM, EC90 CI (upper) […] uM, Hill slope -0.657, Maximum measured 73.173 %, Maximum response 100 %, Minimum measured 2.32 %, R squared 0.658): 1.14 µM

Cc1cc(CN)cc(NC(=O)c2cc(Cl)cc(NC(=O)OCc3ccccc3)c2)c1
EC50 (Zika virus [5]): > 50 µM | EC90 (Zika virus [5]; VeroE6/TMPRSS2, Maximum measured 728.77 %, Minimum measured 52.412 %): > 50 µM | EC50 (dengue virus type 2 [1]; VeroE6/TMPRSS2): > 1.85 µM | EC90 (dengue virus type 2 [1]; VeroE6/TMPRSS2, Maximum measured 126.603 %, Minimum measured 82.463 %, P-gp concentration 2 uM, P-gp inhibitor Elacidar): > 1.85 µM | EC90 (Zika virus [3]; Baseline response 0 %, Hill slope -0.823, Maximum measured 127.605 %, Maximum response 100 %, Minimum measured 3.711 %, R squared 0.613): > 5.56 µM | EC90 (Zika virus [3]; Zika virus, VeroE6/TMPRSS2, Baseline response 0 %, Hill slope -1.09, Maximum measured 145.706 %, Maximum response 100 %, Minimum measured 48.4 %, R squared 0.191): > 3.33 µM | EC50 (Zika virus [3]; veroe6/tmprss2): 3.14 µM and 0.66 µM | EC50 (dengue virus type 2 [4]): > 5.56 µM | EC90 (dengue virus type 2 [4]; VeroE6/TMPRSS2, Maximum measured 117.926 %, Minimum measured 57.292 %): > 5.56 µM

NCCCc1cccc(NC(=O)c2cc(Cl)cc(NC(=O)OCc3ccccc3)c2)n1
EC50 (Zika virus [5]): > 50 µM | EC90 (Zika virus [5]; VeroE6/TMPRSS2, Maximum measured 444.624 %, Minimum measured 59.048 %): > 50 µM | EC50 (dengue virus type 2 [1]; VeroE6/TMPRSS2): > 5.56 µM | EC90 (dengue virus type 2 [1]; VeroE6/TMPRSS2, Baseline response 0 %, Hill slope -0.245, Maximum measured 101.026 %, Maximum response 100 %, Minimum measured 51.347 %, P-gp concentration 2 uM, R squared 0.141, P-gp inhibitor Elacidar): > 5.56 µM | EC50 (Zika virus [3]; Zika virus, VeroE6/TMPRSS2): 0.762 µM | EC90 (Zika virus [3]; Zika virus, VeroE6/TMPRSS2, Baseline response 0 %, Hill slope -0.324, Maximum measured 72.025 %, Maximum response 100 %, Minimum measured 4.462 %, R squared 0.463): > 16.7 µM | EC50 (dengue virus type 2 [4]): < 0.023 µM | EC90 (dengue virus type 2 [4]; VeroE6/TMPRSS2, Baseline response 0 %, EC90 CI (lower) 0 uM, EC90 CI (upper) 0.069 uM, Hill slope -0.47, Maximum measured 66.667 %, Maximum response 100 %, Minimum measured 7.762 %, R squared 0.244): 2.12 µM

NCc1cccc(C(=O)Nc2cc(Cl)cc(NC(=O)OCc3ccccc3)c2)c1
EC50 (dengue virus type 2 [1]; VeroE6/TMPRSS2): 3.17 µM | EC90 (dengue virus type 2 [1]; VeroE6/TMPRSS2): 5.42 µM | EC90 (Zika virus [3]; Baseline response 0 %, Hill slope -0.985, Maximum measured 92.072 %, Maximum response 100 %, Minimum measured 6.61 %, R squared 0.567): > 5.56 µM | EC90 (Zika virus [3]; Zika virus, VeroE6/TMPRSS2, Baseline response 0 %, Hill slope -0.721, Maximum measured 131.562 %, Maximum response 100 %, Minimum measured 27.938 %, R squared 0.396): > 3.33 µM | EC50 (Zika virus [3]; veroe6/tmprss2): 2.1 µM and 0.867 µM | EC50 (dengue virus type 2 [4]): > 5.56 µM | EC90 (dengue virus type 2 [4]; VeroE6/TMPRSS2, Maximum measured 181.372 %, Minimum measured 88.426 %): > 5.56 µM

Cc1cc(-c2ccc([C@@H](NC(=O)OCc3ccccc3)C(=O)Nc3cccc(CN)c3)cc2)cs1
EC50 (Zika virus [5]): > 50 µM | EC90 (Zika virus [5]; VeroE6/TMPRSS2, Maximum measured 207.969 %, Minimum measured 85.523 %): > 50 µM | EC50 (dengue virus type 2 [1]; VeroE6/TMPRSS2): > 5.56 µM | EC90 (dengue virus type 2 [1]; VeroE6/TMPRSS2, Maximum measured 25.792 %, Minimum measured 7.149 %, P-gp concentration 2 uM, P-gp inhibitor Elacidar): > 5.56 µM | EC50 (Zika virus [3]; Zika virus, VeroE6/TMPRSS2): > 50 µM | EC90 (Zika virus [3]; Zika virus, VeroE6/TMPRSS2, Maximum measured 84.809 %, Minimum measured 8.553 %): > 50 µM | EC50 (dengue virus type 2 [4]): 0.145 µM | EC90 (dengue virus type 2 [4]; VeroE6/TMPRSS2, Baseline response 0 %, Hill slope -0.322, Maximum measured 78.243 %, Maximum response 100 %, Minimum measured 15.352 %, R squared 0.327): > 5.56 µM
